What is called EC50 is the concentration that produces a half-maximal response. The term solubility denotes the concentration that dissolves in the medium under given conditions.

One series deals with T1, human glucagon receptor (Homo sapiens, UniProt P47871).
T1 construct: expressed in transfected cells
Briefly: cAMP response (HTRF) of HEK-293 cells stably expressing human glucagon receptor. It is filed as cell-based. Conditions: Table 6; formed cAMP; read-out: EC50 hGLUC R. Here is the method:
(§1) cAMP content of cells was determined using a kit from Cisbio Corp. (cat. no. 62AM4PEC) based on HTRF (Homogenous Time Resolved Fluorescence). For preparation, cells were split into T175 culture flasks and grown overnight to near confluency in medium (DMEM/10% FBS). Medium was then removed and cells washed with PBS lacking calcium and magnesium, followed by proteinase treatment with accutase (Sigma-Aldrich cat. no. A6964). Detached cells were washed and resuspended in assay buffer (1×HBSS; 20 mM HEPES, 0.1% BSA, 2 mM IBMX) and cellular density determined. They were then diluted to 400000 cells/ml and 25 μl-aliquots dispensed into the wells of 96-well plates. For measurement, 25 μl of test compound in assay buffer was added to the wells, followed by incubation for 30 minutes at room temperature.
On the technique in general: In TR-FRET formats the signal depends on donor and acceptor labels being close together.

Another series concerns the target T2, human GLP-1 receptor (Homo sapiens, UniProt P43220).
T2 construct: expressed in transfected cells
Briefly: cAMP response (HTRF) of HEK-293 cells stably expressing human GLP-1 receptor. Type of series: cell-based. Conditions: Table 6; formed cAMP; read-out: EC50 hGLP-1 R. On the procedure: as §1

Another series can be described thus: physchem. Type of series: physicochemical.

Each structure is given as a SMILES string. Non-standard residues stand in square brackets, D forms with d. Residues, ends and D or L forms follow the SMILES beside them. Met(O2) = CS(=O)(=O)CC[C@H](N)C(=O)O; Aib = CC(C)(N)C(=O)O Some results are limits rather than exact numbers.

T2 sequence (P43220 24-463): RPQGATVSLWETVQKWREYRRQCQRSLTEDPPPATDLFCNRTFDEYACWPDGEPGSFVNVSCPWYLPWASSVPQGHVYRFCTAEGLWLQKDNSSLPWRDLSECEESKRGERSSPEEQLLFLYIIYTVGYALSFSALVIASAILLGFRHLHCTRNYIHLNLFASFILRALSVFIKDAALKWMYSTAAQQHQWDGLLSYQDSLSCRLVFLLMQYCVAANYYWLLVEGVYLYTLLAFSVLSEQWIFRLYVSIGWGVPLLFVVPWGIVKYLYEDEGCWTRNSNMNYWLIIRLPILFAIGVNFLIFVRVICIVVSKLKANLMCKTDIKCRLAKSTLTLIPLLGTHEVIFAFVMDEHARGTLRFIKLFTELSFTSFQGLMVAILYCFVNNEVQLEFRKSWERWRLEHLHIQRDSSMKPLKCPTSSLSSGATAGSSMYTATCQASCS
T1 sequence (P47871 26-477): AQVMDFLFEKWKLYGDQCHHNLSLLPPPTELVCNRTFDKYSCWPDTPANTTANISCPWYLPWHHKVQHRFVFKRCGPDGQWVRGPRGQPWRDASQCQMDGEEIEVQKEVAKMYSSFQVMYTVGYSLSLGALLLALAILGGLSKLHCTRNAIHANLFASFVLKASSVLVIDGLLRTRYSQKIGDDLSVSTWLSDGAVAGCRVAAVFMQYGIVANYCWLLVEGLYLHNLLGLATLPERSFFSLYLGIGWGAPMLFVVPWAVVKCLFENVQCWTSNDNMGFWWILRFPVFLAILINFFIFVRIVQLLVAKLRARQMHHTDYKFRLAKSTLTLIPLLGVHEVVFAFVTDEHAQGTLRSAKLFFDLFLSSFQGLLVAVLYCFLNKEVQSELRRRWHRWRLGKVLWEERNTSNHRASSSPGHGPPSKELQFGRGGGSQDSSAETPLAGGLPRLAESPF

Regarding `CC[C@H](C)[C@H](NC(=O)[C@H](CO)NC(=O)[C@H](CC(C)C)NC(=O)[C@H](CC(=O)O)NC(=O)[C@H](CO)NC(=O)[C@@H](NC(=O)[C@H](Cc1ccccc1)NC(=O)[C@@H](NC(=O)CNC(=O)[C@H](CCC(=O)O)NC(=O)C(C)(C)NC(=O)[C@@H](N)Cc1ccc(O)cc1)[C@@H](C)O)[C@@H](C)O)C(=O)N[C@@H](CCC(N)=O)C(=O)N[C@@H](CC[S+](C)[O-])C(=O)N[C@@H](CCC(=O)O)C(=O)N[C@@H](CCCCN)C(=O)N[C@@H](CCC(=O)O)C(=O)N[C@@H](C)C(=O)N[C@H](C(=O)N[C@@H](CCCNC(=N)N)C(=O)N[C@@H](CC(C)C)C(=O)N[C@@H](Cc1ccccc1)C(=O)N[C@H](C(=O)N[C@@H](CCC(=O)O)C(=O)N[C@@H](Cc1c[nH]c2ccccc12)C(=O)N[C@@H](CC(C)C)C(=O)N[C@@H](CCCCN)C(=O)N[C@@H](C)C(=O)NCC(=O)NCC(=O)N1CCC[C@H]1C(=O)N[C@@H](CO)C(=O)N[C@@H](CO)C(=O)NCC(=O)N[C@@H](C)C(=O)N1CCC[C@H]1C(=O)N1CCC[C@H]1C(=O)N1CCC[C@H]1C(=O)N[C@@H](CO)C(N)=O)[C@@H](C)CC)C(C)C` (some centres unmarked) [compound 13], the EC50 on human glucagon receptor was greater than 1000 nM.

In the case of `CC[C@H](C)[C@H](NC(=O)[C@H](CO)NC(=O)[C@H](CC(C)C)NC(=O)[C@H](CC(=O)O)NC(=O)[C@H](CO)NC(=O)[C@@H](NC(=O)[C@H](Cc1ccccc1)NC(=O)[C@@H](NC(=O)CNC(=O)[C@H](CCC(=O)O)NC(=O)C(C)(C)NC(=O)[C@@H](N)Cc1ccc(O)cc1)[C@@H](C)O)[C@@H](C)O)C(=O)N[C@@H](CCC(N)=O)C(=O)N[C@@H](CC(C)C)C(=O)N[C@@H](CCC(=O)O)C(=O)N[C@@H](CCCCN)C(=O)N[C@@H](CCC(=O)O)C(=O)N[C@@H](C)C(=O)N[C@H](C(=O)N[C@@H](CCCNC(=N)N)C(=O)N[C@@H](CC(C)C)C(=O)N[C@@H](Cc1ccccc1)C(=O)N[C@H](C(=O)N[C@@H](CCC(=O)O)C(=O)N[C@@H](Cc1c[nH]c2ccccc12)C(=O)N[C@@H](CC(C)C)C(=O)N[C@@H](CCCCN)C(=O)N[C@@H](C)C(=O)NCC(=O)NCC(=O)N1CCC[C@H]1C(=O)N[C@@H](CO)C(=O)N[C@@H](CO)C(=O)NCC(=O)N[C@@H](C)C(=O)N1CCC[C@H]1C(=O)N1CCC[C@H]1C(=O)N1CCC[C@H]1C(=O)N[C@@H](CO)C(N)=O)[C@@H](C)CC)C(C)C` [compound 10], at human GLP-1 receptor, the EC50 stood at 0.0012 nM.

Regarding `CC[C@H](C)[C@H](NC(=O)[C@H](CO)NC(=O)[C@H](CC(C)C)NC(=O)[C@H](CC(=O)O)NC(=O)[C@H](CO)NC(=O)[C@@H](NC(=O)[C@H](Cc1ccccc1)NC(=O)[C@@H](NC(=O)CNC(=O)[C@H](CCC(=O)O)NC(=O)C(C)(C)NC(=O)[C@@H](N)Cc1ccc(O)cc1)[C@@H](C)O)[C@@H](C)O)C(=O)N[C@@H](CCC(N)=O)C(=O)N[C@@H](CCSC)C(=O)N[C@@H](CCC(=O)O)C(=O)N[C@@H](CCCCN)C(=O)N[C@@H](CCC(=O)O)C(=O)N[C@@H](C)C(=O)N[C@H](C(=O)N[C@@H](CCCNC(=N)N)C(=O)N[C@@H](CC(C)C)C(=O)N[C@@H](Cc1ccccc1)C(=O)N[C@H](C(=O)N[C@@H](CCC(=O)O)C(=O)N[C@@H](Cc1c[nH]c2ccccc12)C(=O)N[C@@H](CC(C)C)C(=O)N[C@@H](CCCCN)C(=O)N[C@@H](C)C(=O)NCC(=O)NCC(=O)N1CCC[C@H]1C(=O)N[C@@H](CO)C(=O)N[C@@H](CO)C(=O)NCC(=O)N[C@@H](C)C(=O)N1CCC[C@H]1C(=O)N1CCC[C@H]1C(=O)N1CCC[C@H]1C(=O)N[C@@H](CO)C(N)=O)[C@@H](C)CC)C(C)C` [compound 9] (H-Y[Aib]EGTFTSDLSIQMEKEAVRLFIEWLKAGGPSSGAPPPS-NH2), the EC50 at human GLP-1 receptor is 0.0011 nM; on human glucagon receptor it was greater than 1000 nM.

Regarding `CC[C@H](C)[C@H](NC(=O)[C@H](CO)NC(=O)[C@H](CC(C)C)NC(=O)[C@H](CC(=O)O)NC(=O)[C@H](CO)NC(=O)[C@@H](NC(=O)[C@H](Cc1ccccc1)NC(=O)[C@@H](NC(=O)CNC(=O)[C@H](CCC(=O)O)NC(=O)C(C)(C)NC(=O)[C@@H](N)Cc1ccc(O)cc1)[C@@H](C)O)[C@@H](C)O)C(=O)N[C@@H](CCC(N)=O)C(=O)N[C@@H](CC(C)C)C(=O)N[C@@H](CCC(=O)O)C(=O)N[C@@H](CCC(=O)O)C(=O)N[C@@H](CCC(=O)O)C(=O)N[C@@H](C)C(=O)N[C@H](C(=O)N[C@@H](CCCNC(=N)N)C(=O)N[C@@H](CC(C)C)C(=O)N[C@@H](Cc1ccccc1)C(=O)N[C@H](C(=O)N[C@@H](CCC(=O)O)C(=O)N[C@@H](Cc1c[nH]c2ccccc12)C(=O)N[C@@H](CC(C)C)C(=O)N[C@@H](CCCCN)C(=O)N[C@@H](C)C(=O)NCC(=O)NCC(=O)N1CCC[C@H]1C(=O)N[C@@H](CO)C(=O)N[C@@H](CO)C(=O)NCC(=O)N[C@@H](C)C(=O)N1CCC[C@H]1C(=O)N1CCC[C@H]1C(=O)N1CCC[C@H]1C(=O)N[C@@H](CO)C(N)=O)[C@@H](C)CC)C(C)C` [compound 15] (H-Y[Aib]EGTFTSDLSIQLEEEAVRLFIEWLKAGGPSSGAPPPS-NH2), the EC50 at human glucagon receptor was greater than 1000 nM.

On to `CC[C@H](C)[C@H](NC(=O)[C@H](CO)NC(=O)[C@H](CC(C)C)NC(=O)[C@H](CC(=O)O)NC(=O)[C@H](CO)NC(=O)[C@@H](NC(=O)[C@H](Cc1ccccc1)NC(=O)[C@@H](NC(=O)CNC(=O)[C@H](CCC(=O)O)NC(=O)C(C)(C)NC(=O)[C@@H](N)Cc1ccc(O)cc1)[C@@H](C)O)[C@@H](C)O)C(=O)N[C@@H](CCC(N)=O)C(=O)N[C@@H](CCS(C)(=O)=O)C(=O)N[C@@H](CCC(=O)O)C(=O)N[C@@H](CCCCN)C(=O)N[C@@H](CCC(=O)O)C(=O)N[C@@H](C)C(=O)N[C@H](C(=O)N[C@@H](CCCNC(=N)N)C(=O)N[C@@H](CC(C)C)C(=O)N[C@@H](Cc1ccccc1)C(=O)N[C@H](C(=O)N[C@@H](CCC(=O)O)C(=O)N[C@@H](Cc1c[nH]c2ccccc12)C(=O)N[C@@H](CC(C)C)C(=O)N[C@@H](CCCCN)C(=O)N[C@@H](C)C(=O)NCC(=O)NCC(=O)N1CCC[C@H]1C(=O)N[C@@H](CO)C(=O)N[C@@H](CO)C(=O)NCC(=O)N[C@@H](C)C(=O)N1CCC[C@H]1C(=O)N1CCC[C@H]1C(=O)N1CCC[C@H]1C(=O)N[C@@H](CO)C(N)=O)[C@@H](C)CC)C(C)C` [compound 14] (H-Y[Aib]EGTFTSDLSIQ[Met(O2)]EKEAVRLFIEWLKAGGPSSGAPPPS-NH2), for which the solubility at 2 h in the series “physchem” (pH 4.5) and in “physchem” (pH 7.4) was greater than 1000 µg/mL in each case. Also, the EC50 on human glucagon receptor is greater than 1000 nM.

Regarding `CC[C@H](C)[C@H](NC(=O)[C@H](CO)NC(=O)[C@H](CC(C)C)NC(=O)[C@H](CC(=O)O)NC(=O)[C@H](CO)NC(=O)[C@@H](NC(=O)[C@H](Cc1ccccc1)NC(=O)[C@@H](NC(=O)CNC(=O)[C@H](CCC(=O)O)NC(=O)C(C)(C)NC(=O)[C@@H](N)Cc1ccc(O)cc1)[C@@H](C)O)[C@@H](C)O)C(=O)N[C@@H](CCC(N)=O)C(=O)N[C@@H](CC(C)C)C(=O)N[C@@H](CCC(=O)O)C(=O)N[C@@H](CCCCN)C(=O)N[C@@H](CCC(=O)O)C(=O)N[C@@H](C)C(=O)N[C@H](C(=O)N[C@@H](CCCNC(=N)N)C(=O)N[C@@H](CC(C)C)C(=O)N[C@@H](Cc1ccccc1)C(=O)N[C@H](C(=O)N[C@@H](CCC(=O)O)C(=O)N[C@@H](Cc1c[nH]c2ccccc12)C(=O)N[C@@H](CC(C)C)C(=O)N[C@@H](CCCCN)C(=O)N[C@@H](C)C(=O)NCC(=O)NCC(=O)N1CCC[C@H]1C(=O)N[C@@H](CO)C(=O)N[C@@H](CO)C(=O)NCC(=O)N[C@@H](C)C(=O)N1CCC[C@H]1C(=O)N1CCC[C@H]1C(=O)N1CCC[C@H]1C(=O)N[C@@H](CO)C(N)=O)[C@@H](C)CC)C(C)C` [compound 20], the values for the EC50 at human GLP-1 receptor and on human glucagon receptor were 0.001 nM and greater than 1000 nM, respectively.

On to `CC[C@H](C)[C@H](NC(=O)[C@H](CO)NC(=O)[C@H](CC(C)C)NC(=O)[C@H](CC(=O)O)NC(=O)[C@H](CO)NC(=O)[C@@H](NC(=O)[C@H](Cc1ccccc1)NC(=O)[C@@H](NC(=O)CNC(=O)[C@H](CCC(=O)O)NC(=O)C(C)(C)NC(=O)[C@@H](N)Cc1ccc(O)cc1)[C@@H](C)O)[C@@H](C)O)C(=O)N[C@@H](CCC(N)=O)C(=O)N[C@@H](CC(C)C)C(=O)N[C@@H](CCC(=O)O)C(=O)N[C@@H](CCC(=O)O)C(=O)N[C@@H](CCC(=O)O)C(=O)N[C@@H](C)C(=O)N[C@H](C(=O)N[C@](C)(CCCCN)C(=O)N[C@@H](CC(C)C)C(=O)N[C@@H](Cc1ccccc1)C(=O)N[C@H](C(=O)N[C@@H](CCC(=O)O)C(=O)N[C@@H](Cc1c[nH]c2ccccc12)C(=O)N[C@@H](CC(C)C)C(=O)N[C@@H](CCCCN)C(=O)N[C@@H](C)C(=O)NCC(=O)NCC(=O)N1CCC[C@H]1C(=O)N[C@@H](CO)C(=O)N[C@@H](CO)C(=O)NCC(=O)N[C@@H](C)C(=O)N1CCC[C@H]1C(=O)N1CCC[C@H]1C(=O)N1CCC[C@H]1C(=O)N[C@@H](CO)C(N)=O)[C@@H](C)CC)C(C)C` [compound 18], for which the concentration giving a half-maximal response (EC50) at human glucagon receptor is greater than 1000 nM.
